Results as given in article PMC11355195 (Life, 2024).
In brackets after ≈: the same amount, converted by molar mass.

Columns and labels:
[1] = DPPH scavenging capacity; conditions: 0.1 mM DPPH
Method: The method utilized to test the compound’s efficacy in scavenging DPPH radicals was based on protocols detailed in references, with minor changes. The test was completed in duplicate for each concentration. A solution of 0.1 mM DPPH (2,2-diphenyl-1-picrylhydrazyl) was produced, and the compounds were evaluated at different concentrations ranging from 1 to 500 µg/mL. Ascorbic acid served as the positive control with concentrations ranging from 0.01 to 300 µg/mL [35].

[2] = ABTS scavenging activity
Text: With a few minor adjustments, the procedure published by Re et al., was used to evaluate the test samples’ capacity to scavenge radicals against the ABTS (2,2′-azinobis-3-ethylbenzothiazoline-6-sulphonate) radical cation.

[3] = test system: MDA-MB-231; test: MTT cell viability, MDA-MB-231; type: cell-based, Human
Method: (§1) These cell lines were selected to represent distinct sub-types of breast cancer for extensive investigation. […] The medium was added with 10% heat-inactivated fetal calf serum (FCS) to supply vital growth hormones and nutrients necessary for cell proliferation. Additionally, 1% penicillin streptomycin was administered to avoid bacterial contamination, ensuring the sterility and integrity of the cell cultures. The cell cultures were maintained at 37 °C in a humidified environment containing 5% CO2. This controlled environment mimics physiological conditions in the human body, supporting optimal cell development and function. The humidified atmosphere prevents medium evaporation, while the 5% CO2 concentration maintains optimal pH values in the culture medium. These specialized circumstances and methods ensure that the breast cancer cell lines remain healthy and viable for experimental procedures, delivering dependable and reproducible results for research projects. The standard protocols followed for cultivating these cells are crucial for generating consistent and reliable data. Using well-characterized cell lines from a credible source like ATCC ensures the re-liability and comparability of the experimental outcomes.
(§2) This approach determines cell viability based on the ability of living cells to decrease MTT to a purple, water-insoluble formazan product. Cells were planted in 96-well plates at a density of 1 × 10^4 cells per well in 100 μL of complete culture media, which provides all necessary nutrients for cell growth. […] The cells were then treated with the compounds for 24, 48, and 72 h to determine the effect on cell viability over varied time intervals. Following each incubation time, 20 μL of MTT solution (at a concentration of 5 mg/mL in PBS) were applied to each well. The plates were further incubated for 4 h at 37 °C, during which time live cells decrease the MTT to formazan, creating purple crystals. At the end of the incubation, the medium containing the MTT was carefully aspirated, leaving only the formazan crystals in the bottom of the wells. […]

[4] = test system: peripheral blood mononuclear cells (PBMC); test: MTT cell viability, PBMC (normal cell control); type: cell-based; conditions: MTT test, 72 h of treatment (Figure 3)
Method: This approach determines cell viability based on the ability of living cells to decrease MTT to a purple, water-insoluble formazan product. Cells were planted in 96-well plates at a density of 1 × 10^4 cells per well in 100 μL of complete culture media, which provides all necessary nutrients for cell growth. […] The cells were then treated with the compounds for 24, 48, and 72 h to determine the effect on cell viability over varied time intervals. Following each incubation time, 20 μL of MTT solution (at a concentration of 5 mg/mL in PBS) were applied to each well. The plates were further incubated for 4 h at 37 °C, during which time live cells decrease the MTT to formazan, creating purple crystals. At the end of the incubation, the medium containing the MTT was carefully aspirated, leaving only the formazan crystals in the bottom of the wells. To dissolve these crystals, 100 μL of DMSO were administered to each well. […] This formula quantifies the reduction in cell viability in response to the treatments compared to the control. […] Cisplatin, a known anticancer drug, was used as a reference drug at varying concentrations from 0.01 to 50 µg/mL.

[5] = test system: MCF-7; test: MTT cell viability, MCF-7; type: cell-based, Human
Method: as §1, §2

[6] = test system: MDA-MB-436; test: MTT cell viability, MDA-MB-436; type: cell-based, Human
Method: as §1, §2

[7] = Oxygen radical absorbance capacity (ORAC); conditions: Trolox equivalents
Method: The ORAC (Oxygen Radical Absorbance Capacity) test was carried out using a modified version of the procedure reported by Huang et al.. This test examines the antioxidant capacity of compounds by examining their ability to neutralize oxygen radicals. The method was carried out utilizing a 96-well microplate format. First, 150 µL of fluorescein solution, produced as 8 × 10^−8 M fluorescein in 0.075 M phosphate buffer (pH 7.4), were dispersed to each well. Fluorescein is a fluorescent probe whose fluorescence lowers when it reacts with radicals. Next, 25 µL of the substance or mixture to be evaluated was added to the corresponding wells. Wells containing 25 µL of phosphate buffer served as blanks, and wells containing 25 µL of Trolox solution (from 10 to 100 µm) were utilized as standards. Control wells containing 50 µL phosphate buffer without any radicals were also added to provide a baseline. The reaction was initiated by adding 25 µL of a freshly produced solution of AAPH (2,2′-azobis(2-methylpropionamidine) dihydrochloride) at a concentration of 165.94 mM in phosphate buffer to each well, except for the control wells, at a temperature of 37 °C. AAPH creates peroxyl radicals that induce oxidative stress in the fluorescein solution, simulating free-radical attack. […] The fluorescence in-tensity of the mixture was then monitored at regular intervals for 120 min.

[8] = target: T1, COX-1 (Ovis aries, UniProt P05979); test: COX-1-catalyzed prostaglandin production inhibition; type: biochemical, ram
T1 construct: The COX-1 enzyme was produced from ram seminal vesicles; purchased Cayman Chemical Company, Ann Arbor, MI, USA; host or cells: ram seminal vesicles (tissue)
T1 sequence (P05979 25-600): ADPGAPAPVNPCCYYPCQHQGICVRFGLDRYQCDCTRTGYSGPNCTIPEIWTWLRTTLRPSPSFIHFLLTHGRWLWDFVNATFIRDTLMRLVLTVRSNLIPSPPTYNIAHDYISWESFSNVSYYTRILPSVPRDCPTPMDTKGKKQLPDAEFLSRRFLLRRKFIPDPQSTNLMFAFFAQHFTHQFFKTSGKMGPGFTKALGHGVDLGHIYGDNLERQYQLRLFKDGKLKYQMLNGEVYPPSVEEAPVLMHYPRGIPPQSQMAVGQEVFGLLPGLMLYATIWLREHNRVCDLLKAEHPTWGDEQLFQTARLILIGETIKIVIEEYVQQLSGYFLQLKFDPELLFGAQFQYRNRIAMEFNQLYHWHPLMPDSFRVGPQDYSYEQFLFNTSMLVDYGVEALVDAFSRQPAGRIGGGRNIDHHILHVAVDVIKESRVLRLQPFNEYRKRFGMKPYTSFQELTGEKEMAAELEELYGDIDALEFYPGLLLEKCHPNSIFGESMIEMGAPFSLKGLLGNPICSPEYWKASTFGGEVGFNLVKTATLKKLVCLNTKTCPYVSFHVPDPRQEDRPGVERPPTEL
Method: The COX inhibitory effects of the substances were examined using a COX-1/COX-2-catalyzed prostaglandin production test, using a modified approach by Futaki et al.. The chemicals were dissolved in 4% DMSO to a final concentration of 100 µg/mL.
In this test, one unit of COX-1 or COX-2 enzyme was suspended in a 0.1 M Tris-HCl buffer (pH 7.5) containing hematin ([…]) and phenol (2 mM) as cofactors. The COX-1 enzyme was produced from ram seminal vesicles, while COX-2 was taken from sheep placenta with a purity of 70% (both from Cayman Chemical Company, Ann Arbor, MI, USA). The reaction mixture was preincubated with either the solvent vehicle (4% DMSO) or the test solution for 2 min at 37 °C. […] Arachidonic acid, tagged with radioactive carbon ([1–14C]), serves as a substrate for the COX enzymes. The mixture was then incubated for an additional 2 min at 37 °C. […] The organic solvent phase was removed, and the PGE2 level in the remaining aqueous phase was quantified using a radioimmunoassay with a liquid scintillation counter, which measures the radioactivity (disintegrations per minute, DPM) of the [1–14C]-labeled PGE2. The percentage inhibition of COX-catalyzed prostaglandin production by the test compounds was estimated by comparing the radioactivity of the samples with the solvent vehicle controls. […]

[9] = test system: MCF-7 cells; conditions: at 24 and 48 h; ref Mari et al. (2021) [78]; read-out: IC50, survival of MCF-7 cells; cited from earlier work
[10] = MTT test, 72 h of treatment (Figure 3)

With O=C1O[C@H]([C@@H](O)CO)C(O)=C1O [Ascorbic acid (AA), Ascorbic acid, reference compound] as the compound, how does the “DPPH Scavenging Capacity IC50” value [1] read?
Its value is 188.24 ± 6.46 µg/mL.

What about the “ABTS Scavenging Activity IC50” value [2] of the same compound?
Its value is 25.20 ± 3.06 µg/mL.

For N.N.[Cl][Pt][Cl] [Cisplatin, reference compound], which “IC50 Value ± SD, MDA-MB-231” value [3, 10] is on record?
Its value is 4.60 ± 0.66 µg/mL.

What about the “IC50 Value ± SD, PBMC” value [4] of the same compound?
The value was 25.36 ± 1.40 µg/mL.

What about the “IC50 Value ± SD, MCF-7” value [5, 10] of the same compound?
The value was 8.43 ± 0.92 µg/mL.

What about the “IC50 Value ± SD, MDA-MB-436” value [6, 10] of the same compound?
The value was 3.96 ± 0.59 µg/mL.

Which results are given for Cc1ccc(C(C)C)cc1O [Carvacrol, 2-methyl-5-(1-methylethyl)phenol]?
Oxygen Radical Absorbance Capacity [7]: 3.535 ± 0.127 mmol TE/g; IC50 [8]: 470 µM; IC50 ([3]; Homo sapiens, MDA-MB-231, 72 h, read-out: IC50 Value ± SD, MDA-MB-231): 9.76 ± 0.23 µg/mL (≈ 65 µM); IC50 [9]: 200 µM; IC50 ([5]; Homo sapiens, MCF7, 72 h, read-out: IC50 Value ± SD, MCF-7): 5.93 ± 0.77 µg/mL (≈ 39.5 µM); IC50 ([6]; Homo sapiens, MDA-MB-436, 72 h, read-out: IC50 Value ± SD, MDA-MB-436): 9.5 ± 1.15 µg/mL (≈ 63.2 µM); ABTS Scavenging Activity IC50 [2]: 107.88 ± 4.46 µg/mL
